Assay results as given in patent US20240277732A1, “COMPOSITIONS AND METHODS FOR TREATING BRAIN-GUT DISORDERS” (Enterin, Inc., priority 2018, published 2024).
“Also recorded” adds a separate entry of the source.

How the values were obtained:
Format in all cases: in vivo, human
[1] = Phase 2 trial Stage 2: systolic blood pressure
[2] = Phase 2 trial: pharmacokinetics of orally administered squalamine (ENT-01); details: estimated against IV squalamine PK of prior clinical studies
Description: Pharmakokinetics: PK data were collected on the 10 patients enrolled in Stage 1 and 10 patients enrolled in Stage 2 to determine the extent of systemic absorption. In Stage 1, PK data were obtained at each visit, pre-medication, at 1, 2, 4, 8 and 24 hours (Table 10). In Stage 2, PK was measured on days 1 and 6 of the randomization period pre-medication, at 1, 2, 4 and 8 hours (Table 11).
The mean Cmax, Tmax and T1/2 and AUC of the squalamine ion following squalamine (ENT-01) oral dosing for Stage 1 patients. The PK analyses are only approximate, as the lower limit of the validated concentration range was 10 ng/ml; most of the measured concentrations fell below that value. The mean Cmax, Tmax and T1/2 and AUC of the squalamine ion following squalamine (ENT-01) oral dosing for Stage 2 patients. The PK analyses are only approximate, as the lower limit of the validated concentration range was 0.5 ng/ml.

[3] = tested on: patients with PD and constipation; assay: Phase 2 trial Stage 2: bowel function under daily oral dosing (stool diary, PAC-QOL, PAC-SYM)
Description: Following successful screening, all subjects underwent a 14-day run-in period where the degree of constipation was assessed through a validated daily log (Zinsmeister et al. 2013) establishing baseline CSBMs/week. Subjects with an average of <3 CSBMs/week proceeded to dosing.
(§1) In Stage 2, 34 patients were evaluated.
The primary efficacy outcome variable was whether or not a subject was a “success” or “failure”. This is an endpoint based on subject diary entries for the “fixed dose” period prior to the endpoint assessment defined as average complete stool frequency increase by 1 or more over baseline, or 3 or more complete spontaneous stools/week. The subject was deemed a “success” if s/he met one or more of the criteria listed above, otherwise the subject was deemed a “failure”. The primary analysis was based on all subjects with a baseline assessment and an assessment at the end of the “fixed-dose” period and was a comparison of the proportion of successes with 0.10 (the null hypothesis corresponding to no treatment effect).

[4] = tested on: patients with PD and constipation; assay: Phase 2 trial: adverse events (MedDRA, CTCAE grading)
Description: Tolerability limits included diarrhea or vomiting.
as §1

[5] = tested on: patients with PD and constipation; assay: Phase 2 trial Stage 2: CNS symptoms (UPDRS, MMSE, PDHQ, BDI-II, sleep diary)
From the text: Exploratory end-points, in addition to constipation, included for example, (i) depression assessed using the Beck Depression Inventory (BDI-II) (Steer et al. 2000) and Unified Parkinson's Disease Rating Scale (UPDRS); (ii) cognition assessed using the Mini Mental State Examination (MMSE) (Palsteia et al. 2018), Unified Parkinson's Disease Rating Scale (UPDRS), and Trail Making Test (TMT); (iii) sleep and REM-behavior disorder (RBD) using a daily sleep diary, I-Button Temperature Assessment, a REM sleep behavior disorder (RBD) questionnaire (RBDQ) (Stiasny-Kolster et al. 2007), and the UPDRS; (iv) hallucinations assessed using the PD hallucinations questionnaire (PDHQ) (Papapetropoulos et al. 2008), the UPDRS, and direct questioning; (v) fatigue using the Parkinson's Disease Fatigue Scale (PFS-16) and the UPDRS; (vi) motor functions using the UPDRS; and (vii) non-motor functions using the UPDRS.
(§2) Assessments were made at baseline and at the end of the fixed dose and washout periods. Circadian system status was evaluated by continuously monitoring wrist skin temperature (Thermochron iButton DS1921H; Maxim, Dallas) following published procedures (Sarabia et al. 2008).
CNS Symptoms in Stage 2: An exploratory analysis was done with respect to the sleep data, the body temperature data, mood, fatigue, hallucinations, cognition and other motor and non-motor symptoms of PD. Continuous measurements within a subject were compared with a paired t-test and continuous measurements between subject groups were compared with a two-group t-test. Categorical data were compared with a chi-squared test or a Fisher's exact test if the expected cell counts are too small for a chi-squared test.

[6] = tested on: patients with PD and constipation; assay: Phase 2 trial Stage 2: circadian rhythm of wrist skin temperature
Description: as §2
Circadian rhythm of skin temperature was evaluable in 12 patients (i.e., those who had recordings that extended from baseline through washout). Circadian system functionality was evaluated by continuously monitoring wrist skin temperature using a temperature sensor (Thermochron iButton DS1921H; Maxim, Dallas, TX) (Sarabia et al. 2008). A nonparametric analysis was performed for each participant to characterize DST as previously described (Sarabia et al. 2008; Ortiz-Tudela et al. 2010). […]
Briefly, this analysis includes the following parameters: (i) the inter-daily stability (the constancy of 24-hour rhythmic pattern over days, IS); (ii) intra-daily variability (rhythm fragmentation, IV); (iii) average of 10-minute intervals for the 10 hours with the minimum temperature (L10); (iv) average of 10-minute intervals for the 5 hours with the maximum temperature (M5) and the relative amplitude (RA), which was determined by the difference between M5 and L10, divided by the sum of both. Finally, the Circadian Function Index (CFI) was calculated by integrating IS, IV, and RA. […]

CC(C)[C@@H](CC[C@@H](C)[C@H]1CC[C@H]2[C@@H]3[C@H](O)C[C@H]4C[C@@H](NCCCNCCCCN)CC[C@]4(C)[C@H]3CC[C@]12C)OS(=O)(=O)O (single isomer, unassigned) [squalamine (ENT-01)]
change of blood pressure at post medication measurement ([1]; Stage 2 subjects with high or low blood pressure): subjects with high blood pressure demonstrated lower blood pressure at post medication measurement, while subjects with low blood pressure demonstrated higher blood pressure
BP at V4 + 2 hrs post dose ([1]; individual subjects): 111 mmHg
oral bio-availability [2]: less than 0.3%
response rate (CSBM within 24 h of dosing on at least 2 of 3 days) ([3]; Stage 2, daily oral dosing, 75 mg): 26%
CSBM, weekly average (mean, SD) ([3]; Stage 2, fixed dose, n=34, baseline 1.2 (0.90)): 3.8 (2.4) /week
CSBM frequency ([3]; patients later randomized to placebo (n=9), fixed dose period on drug, baseline 1.6): 3.3 CSBM/week
CSBM frequency ([3]; randomized cohort, treatment arm (n=6), fixed dose period, baseline 0.8): 3.2 CSBM/week
CSBM frequency ([3]; randomized cohort, treatment arm (n=6), randomized period 4-6 days, baseline 0.8): 2.4 CSBM/week
CSBM frequency ([3]; randomized cohort, treatment arm (n=6), washout, baseline 0.8): 0.9 CSBM/week
Nausea, Mild ([4]; Stage 1 (10 dosed)): 4(40) n, %
Diarrhea, adverse events by dose ([4]; Stage 1, 25 mg): 1
Nausea, adverse events by dose ([4]; Stage 1, 25 mg): 0
Vomiting, adverse events by dose ([4]; Stage 1, 25 mg): 0
Diarrhea, adverse events by dose ([4]; Stage 1, 50 mg): 1
Nausea, adverse events by dose ([4]; Stage 1, 50 mg): 0
Vomiting, adverse events by dose ([4]; Stage 1, 50 mg): 0
Diarrhea, adverse events by dose ([4]; Stage 1, 75 mg): 1
Nausea, adverse events by dose ([4]; Stage 1, 75 mg): 0
Vomiting, adverse events by dose ([4]; Stage 1, 75 mg): 0
Diarrhea, adverse events by dose ([4]; Stage 1, 100 mg): 0
Nausea, adverse events by dose ([4]; Stage 1, 100 mg): 1
Vomiting, adverse events by dose ([4]; Stage 1, 100 mg): 1
Diarrhea, adverse events by dose ([4]; Stage 1, 125 mg): 1
Nausea, adverse events by dose ([4]; Stage 1, 125 mg): 2
Vomiting, adverse events by dose ([4]; Stage 1, 125 mg): 1
Diarrhea, adverse events by dose ([4]; Stage 1, 150 mg): 1
Nausea, adverse events by dose ([4]; Stage 1, 150 mg): 0
Vomiting, adverse events by dose ([4]; Stage 1, 150 mg): 0
Diarrhea, adverse events by dose ([4]; Stage 1, 175 mg): 1
Nausea, adverse events by dose ([4]; Stage 1, 175 mg): 1
Vomiting, adverse events by dose ([4]; Stage 1, 175 mg): 0
Diarrhea, adverse events by dose ([4]; Stage 1, 200 mg): 0
Nausea, adverse events by dose ([4]; Stage 1, 200 mg): 2
Vomiting, adverse events by dose ([4]; Stage 1, 200 mg): 0
Difficulty falling asleep, Mild ([4]; Stage 2 (34 dosed)): 1(3) n, %
Eye infection, Mild ([4]; Stage 2 (34 dosed)): 1(3) n, %
Flatulence, Mild ([4]; Stage 2 (34 dosed)): 1(3) n, %
Urinary retention, Mild ([4]; Stage 2 (34 dosed)): 1(3) n, %
Urinary tract infection, Mild ([4]; Stage 2 (34 dosed)): 1(3) n, %
Worsening hemorrhoid, Mild ([4]; Stage 2 (34 dosed)): 1(3) n, %
Diarrhea, adverse events by dose ([4]; Stage 2, 75 mg): 7
Dizziness (lightheadedness included), adverse events by dose ([4]; Stage 2, 75 mg): 8
Nausea, adverse events by dose ([4]; Stage 2, 75 mg): 3
Diarrhea, adverse events by dose ([4]; Stage 2, 100 mg): 10
Dizziness (lightheadedness included), adverse events by dose ([4]; Stage 2, 100 mg): 7
Nausea, adverse events by dose ([4]; Stage 2, 100 mg): 12
Diarrhea, adverse events by dose ([4]; Stage 2, 125 mg): 3
Dizziness (lightheadedness included), adverse events by dose ([4]; Stage 2, 125 mg): 8
Nausea, adverse events by dose ([4]; Stage 2, 125 mg): 4
Diarrhea, adverse events by dose ([4]; Stage 2, 150 mg): 2
Dizziness (lightheadedness included), adverse events by dose ([4]; Stage 2, 150 mg): 2
Nausea, adverse events by dose ([4]; Stage 2, 150 mg): 11
Diarrhea, adverse events by dose ([4]; Stage 2, 175 mg): 1
Dizziness (lightheadedness included), adverse events by dose ([4]; Stage 2, 175 mg): 0
Nausea, adverse events by dose ([4]; Stage 2, 175 mg): 12
Diarrhea, adverse events by dose ([4]; Stage 2, 200 mg): 3
Nausea, adverse events by dose ([4]; Stage 2, 200 mg): 6
Diarrhea, adverse events by dose ([4]; Stage 2, 225 mg): 3
Nausea, adverse events by dose ([4]; Stage 2, 225 mg): 1
Diarrhea, adverse events by dose ([4]; Stage 2, 250 mg): 2
time hallucinations did not return after discontinuation ([5]; 1 patient): 4 weeks
time hallucinations did not return after discontinuation ([5]; another patient): 2 weeks
patients in whom hallucinations and delusions improved or disappeared during treatment ([5]; of those with hallucinations (5) or delusions (1) at baseline): 5 of 6
markers of healthy circadian function (IS, RA, CFI, IV) ([6]; fixed dose versus baseline, 12 evaluable patients): improved all markers of healthy circadian function; also recorded: significant positive impact on the circadian rhythm of skin temperature
circadian parameters during wash-out (IS, CFI) ([6]; wash-out versus baseline): improvement persisted for several of these circadian parameters
